Values after ≈ are worked out from the molar mass of the structure shown.
What was measured:
Klebsiella pneumoniae = experiment: Antibacterial activity against Klebsiella pneumoniae ATCC 29665 assessed as minimum inhibitory concentration incubated for 16 to 18 hrs by broth microdilution method; assay type: functional; conditions: time 16-18 hrs
Enterococcus faecalis = experiment: Antibacterial activity against Enterococcus faecalis ATCC 29212 assessed as minimum inhibitory concentration incubated for 24 hrs by broth microdilution method; assay type: functional

Row | Structure (SMILES) | MIC90 (Klebsiella pneumoniae) [µg/mL] | MIC90 (Enterococcus faecalis) [µg/mL]
1 | CCCNC(=O)[C@H]1O[C@@H](n2ccc(N)nc2=O)C=C[C@@H]1NC(=O)C[C@@H](N)CCN(C)C(=N)N | 128 (≈ 276 µM) | –
2 | CNC(=O)[C@H]1O[C@@H](n2ccc(N)nc2=O)C=C[C@@H]1NC(=O)C[C@@H](N)CCN(C)C(=N)N | – | 16 (≈ 36.7 µM)
3 | CN(C)C(=O)[C@H]1O[C@@H](n2ccc(N)nc2=O)C=C[C@@H]1NC(=O)C[C@@H](N)CCN(C)C(=N)N | – | 16 (≈ 35.6 µM)
4 | CN(CC[C@H](N)CC(=O)N[C@H]1C=C[C@H](n2ccc(N)nc2=O)O[C@@H]1C(=O)O)C(=N)N [BLASTICIDIN_S] | – | 32 (≈ 75.7 µM)

— ChEMBL document CHEMBL5344464, “Forgotten Natural Products: Semisynthetic Development of Blasticidin S As an Antibiotic Lead” (ACS Med Chem Lett, 2024)
